Test results from PubChem BioAssay (NCI).
Where “and” joins values, the source holds several entries; their conditions need not be identical. Equal values may be shown once.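 These data come from cells grown in 96-well plates and exposed to compound for 48 hours at five concentrations. Definition used: TGI = concentration required for complete inhibition of growth.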

Key:
Experiment in all cases: NCI tumour cell line growth inhibition, 48 h
[1] = tested on: DLD-1 colon
[2] = tested on: SNB-78 CNS
[3] = tested on: DMS 114 small cell lung
[4] = tested on: RXF-631 renal
[5] = tested on: HOP-18 NSCLC
[6] = tested on: DMS 273 small cell lung
[7] = tested on: XF 498 CNS
[8] = tested on: M19-MEL melanoma
[9] = tested on: MDA-N

Row | SMILES | TGI [1] [µM] | TGI [2] [µM] | TGI [3] [µM] | TGI [4] [µM] | TGI [5] [µM] | TGI [6] [µM] | TGI [7] [µM] | TGI [8] [µM] | TGI [9]
1 | CCCCN(CCCC)C(=O)C(=O)C(C(=O)c1ccc(OC)cc1)c1ccc(OC)cc1 (stereo unspecified) | > 100 | > 100 | > 100 | > 100 | > 100 | – | – | – | –
2 | COC(=O)CC(c1ccccc1)C1(c2ccccc2)SCCS1 (stereo unspecified) | > 290 | – | > 290 | > 290 | > 290 | > 290 | > 290 | > 290 | –
3 | O=C1CN(c2cccc(Cl)c2)C(=O)CN1CCN1CC(=O)N(c2cccc(Cl)c2)CC1=O | – | – | – | – | – | – | – | – | > 100 µM
4 | O=C1C=CC(=O)c2nc3c(cc21)CCC3 | 36 | 42 | 42.5 | > 100 | 39.8 | 47.4 | 32.9 | 31.2 | –
5 | c1ccc(NCn2cnc3ccccc32)cc1 | > 100 | > 100 | > 100 | > 100 | > 100 | > 100 | > 100 | > 100 | –
6 | CC1=C2C(=C[C@@](C)(CO)[C@@H]2O)C(=O)[C@](C)(O)C12CC2 | – | – | – | – | – | – | – | – | 0.0272 µM and 0.0105 µM
7 | O=C(O)c1nc2nc(Cl)c(Cl)nc2[nH]1 | – | – | – | – | – | – | – | – | > 100 µM
8 | COc1cccc(C2SC(N)=Nc3c2c(C)nn3C(=O)c2ccccc2O)c1 (stereo unspecified) | – | – | – | – | – | – | – | – | > 10 µM
9 | CCOC(=O)C1=C(C(=O)OCC)C2c3ccccc3C=CN2C(C(=O)OCC)=C(SC)S1 (stereo unspecified) | > 100 | > 100 | > 100 | – | – | > 100 | – | > 100 | –
10 | CN(C)CCn1c2c3ccccc3ccc2c2oc(=O)c3ccccc3c21 | > 100 | 48.1 | – | 31.5 | 35.3 | – | 30.1 | 25 | –
11 | COc1ccc(OC)c(N2CC(N)C2=O)c1 (stereo unspecified) | – | – | – | > 100 | > 100 | > 100 | > 100 | > 100 | –
12 | Cc1cc2c(C)[nH]nc2c(C(=O)O)c1C | > 100 | > 100 | > 100 | – | – | > 100 | > 100 | > 100 | –
13 | O=S(=O)(N/N=C/c1cccc(/C=N/NS(=O)(=O)c2ccccc2)c1)c1ccccc1 | > 100 | > 100 | > 100 | > 100 | > 100 | > 100 | – | > 100 | –
14 | O=c1c(-c2ccccc2)c2oc(c1-c1ccccc1)CSCc1cccc(c1)CSC2 | > 100 | > 100 | > 100 | – | > 100 | > 100 | – | > 100 | –
15 | CC(=O)O/N=C(/C)c1ccccc1O | > 100 | > 100 | > 100 | – | > 100 | > 100 | > 100 | > 100 | –
16 | CC(=O)CC(OC(C)=O)C1=CCC2C(CC1C)OC(=O)C2C (stereo unspecified) | – | – | – | – | – | – | – | – | > 100 µM
17 | CC1(C)OC1COc1c2occc2cc2ccc(=O)oc12 (stereo unspecified) | – | – | – | – | – | – | – | – | > 100 µM
18 | CCOC(=S)SCC(=O)O | – | – | – | – | – | – | – | – | > 100 µM
19 | CC(=O)NNc1nc(C)c(C(=O)/C=C/c2ccc(NC(C)=O)cc2)s1 | > 100 | > 100 | – | > 100 | > 100 | > 100 | – | > 100 | –
20 | CC(C)=CCC(O)C1=CC(=O)c2c(O)ccc(O)c2C1=O (stereo unspecified) | – | – | – | – | – | – | – | – | 2.3 µM
21 | C/C(CCn1[nH]c(=O)ccc1=O)=N\NC(=O)C(=O)NN | > 100 | – | – | > 100 | > 100 | > 100 | > 100 | > 100 | –
22 | CC(=O)OCCOCNC(=S)N/N=C(\C)c1cnccn1 | > 100 | > 100 | 51.4 | – | 97.5 | 67 | > 100 | 46.3 | –
23 | Cc1ccc(/C=C/C(=O)c2cccc3ccccc23)cc1 | – | 31.4 | – | – | – | 47.2 | 28.7 | 49.9 | –
